# Results: article PMC11368737, “Effects of three flavonoids on the metabolism of lenvatinib” (Frontiers in Pharmacology, 2024)
# Like-named read-outs stand apart in the source and are kept apart here.
# B1: CYP1A2 (Rattus norvegicus) (protein)
# chain: MAFSQYISLAPELLLATAIFCLVFWVLRGTRTQVPKGLKSPPGPWGLPFIGHMLTLGKNPHLSLTKLSQQYGDVLQIRIGSTPVVVLSGLNTIKQALVKQGDDFKGRPDLYSFTLITNGKSMTFNPDSGPVWAARRRLAQDALKSFSIASDPTSVSSCYLEEHVSKEANHLISKFQKLMAEVGHFEPVNQVVESVANVIGAMCFGKNFPRKSEEMLNLVKSSKDFVENVTSGNAVDFFPVLRYLPNPALKRFKNFNDNFVLFLQKTVQEHYQDFNKNSIQDITGALFKHSENYKDNGGLIPQEKIVNIVNDIFGAGFETVTTAIFWSILLLVTEPKVQRKIHEELDTVIGRDRQPRLSDRPQLPYLEAFILEIYRYTSFVPFTIPHSTTRDTSLNGFHIPKECCIFINQWQVNHDEKQWKDPFVFRPERFLTNDNTAIDKTLSEKVMLFGLGKRRCIGEIPAKWEVFLFLAILLHQLEFTVPPGVKVDLTPSYGLTMKPRTCEHVQAWPRFSK
# Columns and labels:
# [1] = parameters: method as in Xia et al., 2023; conditions: co-administered azole; ref Xia et al., 2023; cited from earlier work
# [2] = test system: lenvatinib metabolism in rat liver microsomes (RLM); assay: Inhibition of lenvatinib metabolism (M1 formation) by flavonoids in rat liver microsomes; conditions: Lineweaver-Burk plot
# Excerpt: (§1) The experimental data were expressed as mean ± standard deviation (mean ± S.D.). Through GraphPad Prism 9.5 software, the Michaelis-Menten curves of lenvatinb in RLM and HLM were drawn based on the Michaelis-Menten analysis curve fitting program in nonlinear regression analysis, and the log(inhibitor) vs normalized response mode was applied to acquire the corresponding IC50 curve diagram. The Lineweaver-Burk plot was got by the Lineweaver-Burk double reciprocal mode, and its subsidiary plot was drawn on the slope (Km/Vmax vs. inhibitor concentration) and y-intercept (1/Vmax vs. inhibitor concentration) of the drawn line. Besides, the mean plasma concentration-time curve of lenvatinib was plotted based on the pharmacokinetic data. Drug and Statistics (DAS) software (version 3.0 software, Mathematical Pharmacology Professional Committee of China, Shanghai, China) with non-compartment model analyzes was used to obtain the corresponding pharmacokinetic parameters. SPSS (version 24.0; SPSS Inc., Chicago, IL, United States of America) with one-way ANOVA was used to compare the difference between the combination and the single group, respectively. p < 0.05, it was considered statistically significant.
# [3] = test system: lenvatinib metabolism (M1 formation) in HLM; assay: Inhibition of lenvatinib metabolism (M1 formation) by flavonoids in human liver microsomes; type: in vitro ADME; conditions: human; for IC50 at 30 min: 0.3 mg/mL HLM, lenvatinib 16.9 μM, mean ± S.D., read-out: IC50 to inhibit the metabolism of lenvatinib in HLM
# [4] = test system: lenvatinib metabolism in human liver microsomes (HLM); assay: as above; type: in vitro ADME; conditions: for Inhibitory type on lenvatinib metabolism in HLM: Lineweaver-Burk plot
# CYP3A4 [5] = test system: CYP3A4
# Protocol: (§2) To determine the enzymatic kinetic parameter (the Michaelis constant, Km) of lenvatinib in RLM and HLM, we established a 200 μL enzyme reaction system, which included 2–100 μM lenvatinib, 0.3 mg/mL RLM or HLM, 0.1 M Tris-HCl, and 1 mM NADPH. […] The mixed probe substrates were added to an incubation mixture containing 0.3 mg/mL RLM, 0.1 M PBS, and 1 mM NADPH. First, the mixture without NADPH was pre-incubated at 37°C for 5 min, and then 10 μL NADPH was added to start the reaction. After incubation for 30 min, the samples were immediately freezed to −80°C to terminate the reaction. About 20 min later, 300 μL acetonitrile and 10 μL regorafenib (200 ng/mL) as IS were added to precipitate the protein. When the samples were fully vortexed for 2 min and completely mixed, the mixture was centrifuged for 10 min at 13,000 rpm. In the end, each supernatant was detected and analyzed by UPLC-MS/MS.
# (§3) To explore the ability of three flavonoids to inhibit lenvatinib metabolism in vitro, we measured the half-maximal inhibitory concentration (IC50) of luteolin, myricetin, and fisetin, respectively. The 200 μL incubation system consisted of Tris-HCl (0.1 M), RLM or HLM (0.3 mg/mL), NADPH (1 mM), lenvatinib (23.5 μM in RLM or 16.9 μM in HLM) and three flavonoids (0, 0.01, 0.1, 1, 10, 25, 50 and 100 μM). To evaluate the effects of three flavonoids on CYP1A2, CYP2B6 and CYP3A4 activity in RLM, the specific CYP isoform probe mixture was incubated with a single inhibitor and the specific CYP isoform probe was used at a concentration equal to or slightly below its corresponding Km value ([Dinger et al., 2014]). […] Finally, the samples were processed as mentioned above.
# CYP1A2 [6] = test system: CYP1A2; parameters: method as in Cao et al., 2017; Shi et al., 2024; conditions: ref Cao et al., 2017; Shi et al., 2024; read-out: IC50 on CYP1A2 in vitro; cited from earlier work
# CYP3A4 [7] = assay: in vitro; conditions: rat; for IC50 at 30 min: microsomes
# Protocol: as §2, §3
# CYP1A2 [8] = molecular target: T1, CYP1A2 (Rattus norvegicus, UniProt P04799); assay: CYP1A2 activity in RLM, mixed probe method (melatonin); conditions: for inhibition at 30 min, 100 µM: rat
# T1 sequence (P04799 1-513): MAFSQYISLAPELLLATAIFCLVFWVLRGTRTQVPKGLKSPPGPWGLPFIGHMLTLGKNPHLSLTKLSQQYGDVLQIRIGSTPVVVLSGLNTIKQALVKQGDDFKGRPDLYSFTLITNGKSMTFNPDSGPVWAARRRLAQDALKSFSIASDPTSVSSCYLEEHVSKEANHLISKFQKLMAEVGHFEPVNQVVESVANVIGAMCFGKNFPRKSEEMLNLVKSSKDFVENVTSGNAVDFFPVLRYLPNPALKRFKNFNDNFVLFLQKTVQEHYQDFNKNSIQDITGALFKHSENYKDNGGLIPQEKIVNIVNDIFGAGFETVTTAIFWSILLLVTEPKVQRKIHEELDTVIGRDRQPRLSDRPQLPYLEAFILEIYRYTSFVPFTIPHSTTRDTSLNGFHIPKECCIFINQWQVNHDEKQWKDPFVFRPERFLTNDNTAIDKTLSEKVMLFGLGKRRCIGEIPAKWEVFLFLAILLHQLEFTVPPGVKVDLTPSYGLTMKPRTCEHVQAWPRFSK
# Protocol: as §2, §3
# CYP2B6 = CYP2B6 activity in RLM, mixed probe method (bupropion); conditions: for IC50 at 30 min: rat
# [9] = test system: lenvatinib metabolism (M1 formation) in RLM; assay: Inhibition of lenvatinib metabolism (M1 formation) by flavonoids in rat liver microsomes; conditions: rat
# Excerpt: as §1
# [10] = parameters: method as in Hong et al., 2014; conditions: rats; ref Hong et al., 2014; cited from earlier work
# [11] = test system: tofacitinib metabolism in RLM; parameters: method as in Ye et al., 2024; conditions: ref Ye et al., 2024, cited from earlier work
# [12] = test system: tofacitinib metabolism in HLM; parameters: method as in Ye et al., 2024; conditions: ref Ye et al., 2024, cited from earlier work
# [13] = Metabolic stability of lenvatinib in RLM with or without flavonoids; type: in vitro ADME; conditions: rat, rat liver microsomes, 1.0 μM lenvatinib, 0.3 mg/mL RLM, with or without flavonoid, n = 3
# Protocol: Using the UPLC-MS/MS technique, metabolic stability tests were carried out to monitor any discernible drop in lenvatinib concentration in the RLM matrix ([Shang et al., 2021]). 1.0 μM lenvatinib was incubated with 0.3 mg/mL RLM and 1 mM NADPH in 0.1 M Tris-HCl buffer until a final volume of 0.2 mL was reached. NADPH was introduced following a 5 min pre-incubation period, and the reaction was stopped at various intervals of 0, 5, 10, 45, 60, and 90 min. Similarly, three flavonoids were added to the above incubation system to study the effects of the three flavonoids on the metabolic stability of lenvatinib. The post-treatment method was same as the above enzyme reaction. The metabolic stability curve for lenvatinib was constructed from the obtained data.
# The relative content of lenvatinib in the RLM matrix was calculated after stopping the metabolic reaction at different time periods. The relative content was equal to the percentage of the remaining lenvatinib relative to zero time (representing 100%). […] The in vitro half-life (t1/2) was obtained using the equation: t1/2 = 0.693/k; V (mL/mg) = volume of incubation ([Kaci et al., 2023])/protein in the incubation ([Rumgay et al., 2022]); intrinsic clearance (CLint) (mL/min/mg protein) = V × 0.693/t1/2. […] The metabolic stability results of three flavonoids co-incubated with lenvatinib, including t1/2 and clearance were shown in Table 3.
# [14] = Pharmacokinetics of lenvatinib in SD rats with or without luteolin or myricetin; conditions: Sprague-Dawley, rat, in vivo, po, 1.2 mg/kg
# Protocol: Fifteen SD rats were randomly divided into three groups (n = 5): Group A, lenvatinib (1.2 mg/kg, p. o.) ([Cui et al., 2021]); Group B, lenvatinib (1.2 mg/kg, p. o.) + luteolin (30 mg/kg, p. o.) ([Chen et al., 2010]); Group C, lenvatinib (1.2 mg/kg, p. o.) + myricetin (50 mg/kg, p. o.) ([Lan et al., 2017]). Three drugs were suspended in 0.5% carboxymethylcellulose sodium salt (CMC-Na) solution, respectively, prepared when used. Before the formal experiment, SD rats fasted for 12 h to avoid the effect of food intake on drug absorption, but were free to drink water. At the beginning of the experiment, group A was given equal volumes of 0.5% CMC-Na solution, while group B and C were received luteolin and myricetin, respectively. After 30 min, all three groups were gavaged with a single dose of 1.2 mg/kg lenvatinib. At 1, 1.5, 2, 3, 4, 6, 8, 12, and 24 h after lenvatinib administration, blood samples were collected from the tail vein into a 1.5 mL EP tube treated with heparin, respectively. The 50 μL plasma supernatant was precisely extracted and put into a new 1.5 mL EP tube after centrifugation at 8,000 rpm for 10 min. […] Finally, the liquid supernatant was taken to UPLC-MS/MS to detect the concentration of the analytes.
# [15] = Michaelis-Menten kinetics of lenvatinib in HLM; type: in vitro ADME, human; conditions: human, human liver microsomes; 2–100 μM lenvatinib, 0.3 mg/mL HLM
# Protocol: (§4) To determine the enzymatic kinetic parameter (the Michaelis constant, Km) of lenvatinib in RLM and HLM, we established a 200 μL enzyme reaction system, which included 2–100 μM lenvatinib, 0.3 mg/mL RLM or HLM, 0.1 M Tris-HCl, and 1 mM NADPH. […] First, the mixture without NADPH was pre-incubated at 37°C for 5 min, and then 10 μL NADPH was added to start the reaction. After incubation for 30 min, the samples were immediately freezed to −80°C to terminate the reaction. About 20 min later, 300 μL acetonitrile and 10 μL regorafenib (200 ng/mL) as IS were added to precipitate the protein. When the samples were fully vortexed for 2 min and completely mixed, the mixture was centrifuged for 10 min at 13,000 rpm. In the end, each supernatant was detected and analyzed by UPLC-MS/MS.
# (§5) The experimental data were expressed as mean ± standard deviation (mean ± S.D.). Through GraphPad Prism 9.5 software, the Michaelis-Menten curves of lenvatinb in RLM and HLM were drawn based on the Michaelis-Menten analysis curve fitting program in nonlinear regression analysis, and the log(inhibitor) vs normalized response mode was applied to acquire the corresponding IC50 curve diagram. […]
# HLM = assay: Michaelis-Menten kinetics of lenvatinib in HLM; type: in vitro ADME, human; conditions: HLM vs RLM
# Protocol: as §4, §5
# CYP1A2 [16] = test system: CYP1A2; parameters: method as in Vavrová et al., 2022; Liu et al., 2023; conditions: CYP1A2 selective inhibitor; ref Vavrová et al., 2022; Liu et al., 2023; cited from earlier work
# not read = substrate: COc1ccc2[nH]cc(CCNC(C)=O)c2c1; assay: not read; conditions: other: melatonin, mixed method, RLM; 37.0 °C
# Protocol: as §2, §3
# [17] = human liver microsomes, probe lenvatinib 16.9 μM
# [18] = rat liver microsomes, probe bupropion (8.0 μM)
molecule,measurement,setting,value
CC(=O)N1CCN(c2ccc(OCC3COC(Cn4ccnc4)(c4ccc(Cl)cc4Cl)O3)cc2)CC1 (stereo not drawn) [ketoconazole],Improvement of plasma exposure to lenvatinib,[1],3.01 times
O=c1cc(-c2ccc(O)c(O)c2)oc2cc(O)cc(O)c12 [luteolin],Inhibitory type on lenvatinib metabolism in RLM,[2],un-competitive
same,Inhibitory type on lenvatinib metabolism in RLM,[2]; listed as Luteolin,un-competitive inhibition
same,IC50 at 30 min,[3]; [17],6.89 ± 0.43 µM
same,Ki at 30 min,"[3]; human liver microsomes, probe lenvatinib 4.23, 8.45, 16.90, 33.80 μM, Lineweaver-Burk secondary plot, n = 3",14.3 ± 4.85 µM
same,Inhibitory type on lenvatinib metabolism in HLM,[4],mixed
same,Inhibitory type on lenvatinib metabolism in HLM,[4]; listed as Luteolin,mixed type of non-competitive and competitive inhibition
same,α for inhibition of lenvatinib metabolism in HLM,[4]; αKi/Ki,1.34
same,Degree of inhibition on CYP3A4,CYP3A4 [5]; microsomes,weak inhibition
same,IC50,CYP1A2 [6],< 10 µM
same,IC50 at 30 min,CYP3A4 [7],49.4 ± 2.45 µM
same,IC50,CYP1A2 [8],0.81 ± 0.07 µM
same,Degree of inhibition on CYP1A2,"CYP1A2 [8]; RLM, 100 μM",strong inhibition
same,"inhibition at 30 min, 100 µM","CYP1A2 [8]; rat liver microsomes, probe melatonin (30.0 μM)",96.9%
same,Degree of inhibition on CYP2B6,CYP2B6; RLM,moderate inhibition
same,IC50 at 30 min,CYP2B6; [18],18.9 ± 1.33 µM
O=c1c(O)c(-c2cc(O)c(O)c(O)c2)oc2cc(O)cc(O)c12 [myricetin],IC50 at 30 min,[9],11.2 ± 0.81 µM
same,IC50 at 30 min,[3],12.3 ± 1.21 µM
same,Absolute bioavailability,[10],less than 10%
same,Inhibition type on tofacitinib in RLM,[11],non-competitively
same,IC50,[11]; read-out: IC50 for inhibition of tofacitinib in RLM,9.27 µM
same,Inhibition type on tofacitinib in HLM,[12],non-competitively
same,IC50,[12]; read-out: IC50 for inhibition of tofacitinib in HLM,2.35 µM
same,IC50 at 30 min,CYP3A4 [7],5.11 ± 0.11 µM
same,IC50,CYP1A2 [8],5.61 ± 0.25 µM
same,"inhibition at 30 min, 100 µM",CYP1A2 [8]; microsomes,98.1%
same,IC50 at 30 min,"CYP2B6; microsomes, IC50 for CYP2B6 in RLM, probe 8.0 μM bupropion, mixed probes, 0.3 mg/mL RLM",> 20 µM
same,IC50,"CYP2B6; read-out: IC50 for CYP2B6 in RLM, probe 8.0 μM bupropion, mixed probes, 0.3 mg/mL RLM",25.6 ± 1.73 µM
"COc1cc2nccc(Oc3ccc(NC(=O)NC4CC4)c(Cl)c3)c2cc1C(N)=O [lenvatinib, Lenvatinib]",microsomal CLint at 1 μM,[13],2.3 ± 0.2 µL/min/mg
same,half-life at 1 μM,[13]; read-out: in vitro t1/2 of lenvatinib,17 ± 1.55 h
same,AUC(0-inf),[14],1410 ng·h/mL
same,AUC(0-t),[14],1260 ng·h/mL
same,CL/F,[14],14.3 mL/min/kg
same,Cmax,[14],147 ± 20.4 ng/mL
same,Tmax,[14],5.6 ± 0.89 h
same,t1/2z of lenvatinib,[14],4.14 ± 1.57 h
same,Km at 30 min,[15],16.9 ± 2.42 µM
same,Km in HLM lower than in RLM,HLM,28.1%
Cc1nc2c([nH]1)c(=O)n(C)c(=O)n2Cc1ccco1 [Furafylline],Inhibitory effect on the formation of O-desmethyl lenvatinib,CYP1A2 [16],37%
O=c1c(O)c(-c2ccc(O)c(O)c2)oc2cc(O)ccc12 [fisetin],IC50 at 30 min,[3]; [17],21.2 ± 0.93 µM
same,Degree of inhibition on CYP3A4,CYP3A4 [5]; RLM,weak inhibition
same,IC50 at 30 min,CYP3A4 [7],74.2 ± 2.16 µM
same,IC50,CYP1A2 [8],5.89 ± 0.13 µM
same,"inhibition at 30 min, 100 µM",CYP1A2 [8]; microsomes,93.6%
same,IC50 at 30 min,CYP2B6; [18],29.4 ± 1.36 µM
"Cc1ncc2n1-c1ccc(Cl)cc1C(c1ccccc1F)=NC2 [midazolam, reference compound]",Km at 30 min,CYP3A4 [7],1.9 ± 0.13 µM
C[C@@H](c1nc(-c2ccc(C#N)cc2)cs1)[C@](O)(Cn1cncn1)c1cc(F)ccc1F [isavuconazole],Improvement of plasma exposure to lenvatinib,[1],50.20%
B1,Km,not read,32.39 ± 0.58 µM
